Reference: ChEMBL document CHEMBL1126401, “New potent enkephalin analogs containing trifluoromethylamino acid residues” (Bioorg Med Chem Lett, 1992)
*1 amine or outer side, *2 acyl side, *3 side chain or, on linkers, in order; H or OH if unused. Where a SMILES comes first, the peptide text is derived from it. [ ]: non-standard residue; d: D form. Nva(5,5,5-F3) = N[C@@H](CCC(F)(F)F)C(=O)O; X1 = O=C([C@@H](CCC(F)(F)F)N[*:1])[*:2]; X2 = O=C([C@H](CCCC(F)(F)F)N[*:1])[*:2]; NMeF = CN[C@@H](Cc1ccccc1)C(=O)O

Columns and labels:
Mus musculus = assay: In vivo analgesic activity of fluoro-enkephalin analog was determined against the compound at 10E-9 M/mouse; i.c.v.; type: functional
Mu-type opioid receptor = Mu-type opioid receptor (Rattus norvegicus, UniProt P33535); assay: Compound was evaluated for its binding affinity against enkephalin mu receptor using [3H]PL-017 as ligand in rat cerebrum in vitro
Mu-type opioid receptor, sequence (P33535 whole entry): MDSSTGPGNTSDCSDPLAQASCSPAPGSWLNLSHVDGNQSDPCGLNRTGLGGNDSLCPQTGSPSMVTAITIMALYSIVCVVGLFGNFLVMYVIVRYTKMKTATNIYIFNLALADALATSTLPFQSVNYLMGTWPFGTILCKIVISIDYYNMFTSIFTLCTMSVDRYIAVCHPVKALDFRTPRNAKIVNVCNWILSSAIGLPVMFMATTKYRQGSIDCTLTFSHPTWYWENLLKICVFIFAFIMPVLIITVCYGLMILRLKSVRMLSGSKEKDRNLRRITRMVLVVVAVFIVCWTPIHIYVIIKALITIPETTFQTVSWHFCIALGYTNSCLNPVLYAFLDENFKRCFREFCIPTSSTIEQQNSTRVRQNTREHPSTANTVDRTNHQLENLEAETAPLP

[1] = molecular target: Delta-type opioid receptor (Rattus norvegicus, UniProt P33533); assay: Compound was evaluated for its binding affinity against enkephalin delta receptor using [3H]DPDPE as ligand in rat cerebrum in vitro
Delta-type opioid receptor, sequence (P33533 whole entry): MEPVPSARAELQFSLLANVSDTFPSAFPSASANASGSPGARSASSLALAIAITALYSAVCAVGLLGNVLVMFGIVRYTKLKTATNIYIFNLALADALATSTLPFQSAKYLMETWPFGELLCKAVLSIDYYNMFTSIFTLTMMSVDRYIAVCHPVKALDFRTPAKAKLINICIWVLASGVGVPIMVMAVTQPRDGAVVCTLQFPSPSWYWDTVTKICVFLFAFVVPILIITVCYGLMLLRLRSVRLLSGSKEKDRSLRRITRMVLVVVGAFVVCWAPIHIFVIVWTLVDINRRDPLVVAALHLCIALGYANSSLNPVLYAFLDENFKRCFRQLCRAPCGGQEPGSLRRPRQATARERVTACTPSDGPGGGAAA

[2] = molecular target: Kappa-type opioid receptor (Cavia porcellus, UniProt P41144); assay: Compound was evaluated for its binding affinity against enkephalin kappa receptor using [3H]U-69593 as ligand in guinea pig cerebrum in vitro
Kappa-type opioid receptor, sequence (P41144 whole entry): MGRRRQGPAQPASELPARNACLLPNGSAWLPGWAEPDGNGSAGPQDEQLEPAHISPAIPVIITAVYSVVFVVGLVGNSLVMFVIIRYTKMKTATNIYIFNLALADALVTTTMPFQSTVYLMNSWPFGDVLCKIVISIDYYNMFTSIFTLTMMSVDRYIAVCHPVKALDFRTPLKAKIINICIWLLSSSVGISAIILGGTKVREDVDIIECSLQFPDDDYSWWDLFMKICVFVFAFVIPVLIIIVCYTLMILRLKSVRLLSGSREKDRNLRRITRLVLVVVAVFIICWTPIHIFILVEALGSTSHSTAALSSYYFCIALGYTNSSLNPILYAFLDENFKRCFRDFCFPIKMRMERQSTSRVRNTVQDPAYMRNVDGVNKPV

Molecule `CN1CC[C@]23c4c5ccc(O)c4O[C@H]2[C@@H](O)C=C[C@H]3[C@H]1C5.Cl` [MORPHINE HYDROCHLORIDE] has an ED50 (Mus musculus) of 7e-11 M mouse-1.

`CSCC[C@H](NC(=O)[C@H](Cc1ccccc1)NC(=O)CNC(=O)[C@@H](CCC(F)(F)F)NC(=O)[C@@H](N)Cc1ccc(O)cc1)C(=O)O` (H-Y[X1]GFM-OH) showed an ED50 (Mus musculus) of 1.2e-07 M mouse-1.

Work on `CCC[C@@H](NC(=O)[C@@H](N)Cc1ccc(O)cc1)C(=O)NCC(=O)N[C@@H](Cc1ccccc1)C(=O)N[C@@H](CCSC)C(N)=O` yielded an ED50 (Mus musculus) of 4e-11 M mouse-1.

Molecule `CSCC[C@H](NC(=O)[C@H](Cc1ccccc1)NC(=O)[C@@H](CCC(F)(F)F)NC(=O)CNC(=O)[C@@H](N)Cc1ccc(O)cc1)C(N)=O` (H-YG[X1]FM-NH2) has an ED50 (Mus musculus) of 1.2e-08 M mouse-1.

Work on `CSCC[C@H](NC(=O)[C@H](Cc1ccccc1)NC(=O)CNC(=O)CNC(=O)[C@@H](N)Cc1ccc(O)cc1)C(=O)O` yielded an ED50 (Mus musculus) of 7e-07 M mouse-1.

`CSCC[C@H](NC(=O)[C@H](Cc1ccccc1)NC(=O)[C@H](CCC(F)(F)F)NC(=O)CNC(=O)[C@@H](N)Cc1ccc(O)cc1)C(=O)O` (H-YG[Nva(5,5,5-F3)]FM-OH) was tested, and the ED50 (Mus musculus) was 1.4e-07 M mouse-1.

`CSCC[C@H](NC(=O)[C@H](Cc1ccccc1)NC(=O)CNC(=O)[C@H](CCC(F)(F)F)NC(=O)[C@@H](N)Cc1ccc(O)cc1)C(N)=O` (H-Y[Nva(5,5,5-F3)]GFM-NH2) gave an IC50 (Mu-type opioid receptor) of 0.5 nM, an IC50 [1] of 2 nM and an ED50 (Mus musculus) of 7e-12 M mouse-1. It also gave an IC50 [2] of 400 nM.

`CSCC[C@H](NC(=O)[C@H](Cc1ccccc1)NC(=O)[C@H](CCC(F)(F)F)NC(=O)CNC(=O)[C@@H](N)Cc1ccc(O)cc1)C(N)=O` (H-YG[Nva(5,5,5-F3)]FM-NH2) showed an ED50 (Mus musculus) of 2.2e-08 M mouse-1.

`CSCC[C@H](NC(=O)[C@H](Cc1ccccc1)NC(=O)CNC(=O)[C@H](CCCC(F)(F)F)NC(=O)[C@@H](N)Cc1ccc(O)cc1)C(N)=O` (H-Y[X2]GFM-NH2) was tested, and the ED50 (Mus musculus) was 7e-11 M mouse-1.

`CSCC[C@H](NC(=O)[C@H](Cc1ccccc1)NC(=O)CNC(=O)[C@@H](CCC(F)(F)F)NC(=O)[C@@H](N)Cc1ccc(O)cc1)C(N)=O` (H-Y[X1]GFM-NH2) was tested, and the ED50 (Mus musculus) was 2.5e-08 M mouse-1.

Work on `CN1CC[C@]2(C)CC(Cc3ccc(O)cc32)C1` (single isomer, unassigned) [EPTAZOCINE] yielded an ED50 (Mus musculus) of 5e-11 M mouse-1.

`CSCC[C@H](NC(=O)[C@H](Cc1ccccc1)N(C)C(=O)CNC(=O)[C@H](CCC(F)(F)F)NC(=O)[C@@H](N)Cc1ccc(O)cc1)C(N)=O` (H-Y[Nva(5,5,5-F3)]G[NMeF]M-NH2) gave an ED50 (Mus musculus) of 2e-12 M mouse-1.
